In PubChem BioAssay (NCI):
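Tested at 5 concentrations; 48 h exposure; 96-well plates; endpoints linearly interpolated, else capped at highest concentration. At the GI50, growth is halved. TGI: concentration producing complete growth inhibition.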

Experiments:
Test in all cases: inhibition of tumour cell growth, NCI panel, 48 h
HOP-92 NSCLC = test system: HOP-92 NSCLC
786-0 renal = test system: 786-0 renal
K-562 leukemia = test system: K-562 leukemia
A498 renal = test system: A498 renal
MALME-3M melanoma = test system: MALME-3M melanoma
SN12C renal = test system: SN12C renal
MDA-N = test system: MDA-N
HS 578T breast = test system: HS 578T breast
T-47D breast = test system: T-47D breast
HL-60(TB) leukemia = test system: HL-60(TB) leukemia
HCT-15 colon = test system: HCT-15 colon

SMILES	GI50 (HOP-92 NSCLC) [µM]	TGI (HOP-92 NSCLC) [µM]	TGI (786-0 renal) [µM]	TGI (K-562 leukemia) [µM]	GI50 (A498 renal) [µM]	TGI (A498 renal) [µM]	TGI (MALME-3M melanoma) [µM]	TGI (SN12C renal) [µM]	TGI (MDA-N) [µM]	TGI (HS 578T breast) [µM]	GI50 (T-47D breast) [µM]	TGI (T-47D breast) [µM]	TGI (HL-60(TB) leukemia) [µM]	TGI (HCT-15 colon) [µM]
Cc1c(CNc2ccc(Cl)c(C(=O)NC(CC(=O)O)C(=O)O)c2)ccc2nc(N)nc(N)c12 (centres undefined)	288	> 1000	> 1000	> 1000	24.9	680	692	> 1000	> 1000	> 1000	> 1000	> 1000	> 1000	> 1000
C=CCNC1=C2C[C@@H](C)C[C@@H](OC)C(OC(=O)CCCN(C)C)[C@H](C)/C=C(\C)[C@@H](OC(N)=O)[C@H](OC)/C=C\C=C(/C)C(=O)NC(=CC1=O)C2=O (some centres undefined)	–	34.9	24.8	> 100	–	26.9	14.4	12.6	19.8	41.7	–	24.7	20.2	19.4
Cc1c(-c2ccccc2)c(C#N)c2nnn(-c3ccccc3)c(=O)n12	–	> 100	> 100	> 100	–	> 100	> 100	> 100	> 100	> 100	–	> 100	> 100	> 100
CCSSCS(C)(=O)=O	–	73.5	21.4	27.2	–	96.2	> 100	67.8	> 100	> 100	–	> 100	> 100	32.9
CC/C(Cl)=N\OC(=O)Nc1ccc(OC)cc1	–	5.98	3.24	> 100	–	37	10.7	11.4	11.3	52	–	13.8	4.36	3.12
Cc1cc(NS(=O)(=O)c2ccc(NC(=O)c3ccc4nc5ccccc5c(Nc5ccc(S(=O)(=O)N=C(N)N)cc5)c4c3)cc2)no1	–	67.6	30.6	27.7	–	33.7	29.4	34.4	41.4	72.7	–	34.4	46.2	29.3
Nn1c(Cc2ccc(Cl)cc2)n[nH]c1=O	–	> 100	> 100	> 100	–	> 100	> 100	> 100	> 100	> 100	–	> 100	> 100	> 100
COc1cc(C2c3cc4c(cc3C(O)C3CCC(=O)N23)OCO4)cc(OC)c1OC (centres undefined)	–	> 100	> 100	> 100	–	> 100	> 100	> 100	38.2	> 100	–	> 100	55.1	> 100
Oc1nc(N/N=C/c2c[nH]c3ccccc23)[nH]c1/C=C1\C=Nc2ccccc21	–	36.9	37	27.8	–	27.8	33.8	> 100	> 100	40.6	–	36.5	32.9	61
C/C(O)=C/c1nc2ccccc2nc1/C=C(/C)O	–	66.2	45.8	81	–	67.4	50.7	97.7	> 100	67.5	–	36.9	56.4	> 100
Cc1cccc2c1C(=O)C1(Cc3ccccc3C1=O)C2 (centres undefined)	–	> 100	> 100	> 100	–	> 100	> 100	> 100	> 100	> 100	–	> 100	> 100	> 100
